According to patent publication US11986532B2 (Arvinas Operations, Inc., priority 2021, dated 2024):
Read-outs that look alike come from different tables or passages of the source.

Molecular target: T1, BCL6 (Homo sapiens, UniProt P41182)
T1 construct: endogenous in cells; host or cells: T47D breast cancer epithelial cells
Assay: Immunofluorescence protocol for high content imaging of BCL6 (degradation) in T47D cells, 3 days compound treatment
Format: cell-based
Details: for DC50: read-out: Mean DC50 (nM)* category; for Dmax: read-out: Mean Dmax (%)** category
Summary of the method: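 Read-out: high-content imaging of anti-BCL6 immunofluorescence (Alexa-488 secondary) with CellMask and Hoechst counterstains, 10×, 4 fields/well. Cells had 3 days of compound exposure at 37° C, 5% CO2, 11-point 3-fold series from a final top of 0.1 or 1 μM.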

[1] = T47D cells, 3 days compound treatment

Structure (SMILES)	DC50 [1]	Dmax [1]	Dmax (T47D)	DC50
CNC(=O)COc1cc2cc(Nc3nc(N4CCC(O[C@H]5C[C@H](N6CCC7(CCN(c8ccc9c(c8)C(=O)N(C8CCC(=O)NC8=O)C9=O)CC7)C6)C5)CC4)ncc3Cl)ccc2n(C(C)C)c1=O (stereo partly shown) [Compound 362, 2-({6-[(5-chloro-2-{4-[(1r,3r)-3-{8-[2-(2,6-dioxopiperidin-3-yl)-1,3-dioxo-2,3-dihydro-1H-isoindol-5-yl]-2,8-diazaspiro [4.5]decan-2-yl}cyclobutoxy]piperidin-1-yl}pyrimidin-4-yl)amino]-2-oxo-1-(propan-2-yl)-1,2-dihydroquinolin-3-yl}oxy)-N-methylacetamide]			≥ 70%	10 to 50 nM
CNC(=O)COc1cc2cc(Nc3nc(N4CCC(C(C)(C)N5CCC6(CC5)CN(c5cc(OC)cc7c5CN(C5CCC(=O)NC5=O)C7=O)C6)CC4)ncc3Cl)ccc2n(C(C)C)c1=O (stereo not shown) [Compound 328, 2-{[6-({5-chloro-2-[4-(2-{2-[2-(2,6-dioxopiperidin-3-yl)-6-methoxy-1-oxo-2,3-dihydro-1H-isoindol-4-yl]-2,7-diazaspiro[3.5]nonan-7-yl}propan-2-yl)piperidin-1-yl]pyrimidin-4-yl}amino)-2-oxo-1-(propan-2-yl)-1,2-dihydroquinolin-3-yl]oxy}-N-methylacetamide]			50 to 70%	< 10 nM
CNC(=O)COc1cc2cc(Nc3nc(N4CCC(N5CCC56CN(C5CCN(c7ccc8c(c7)C(=O)N(C7CCC(=O)NC7=O)C8=O)C5)C6)CC4)ncc3Cl)ccc2n(C(C)C)c1=O (stereo not shown) [Compound 221, 2-{[6-({5-chloro-2-[4-(6-{1-[2-(2,6-dioxopiperidin-3-yl)-1,3-dioxo-2,3-dihydro-1H-isoindol-5-yl]pyrrolidin-3-yl}-1,6-diazaspiro[3.3]heptan-1-yl)piperidin-1-yl]pyrimidin-4-yl}amino)-2-oxo-1-(propan-2-yl)-1,2-dihydroquinolin-3-yl]oxy}-N-methylacetamide]			50 to 70%	< 10 nM
CNC(=O)COc1cc2cc(Nc3nc(N4CCC(CN5CC6(CCN(c7cccc8c7C(=O)N(C7CCC(=O)NC7=O)C8=O)CC6(F)F)C5)CC4)ncc3Cl)ccc2n(C(C)C)c1=O (stereo not shown) [Compound 124, 2-{[6-({5-chloro-2-[4-({7-[2-(2,6-dioxopiperidin-3-yl)-1,3-dioxo-2,3-dihydro-1H-isoindol-4-yl]-5,5-difluoro-2,7-diazaspiro[3.5]nonan-2-yl}methyl)piperidin-1-yl]pyrimidin-4-yl}amino)-2-oxo-1-(propan-2-yl)-1,2-dihydroquinolin-3-yl]oxy}-N-methylacetamide]	< 10 nM	50 to 70%		
CNC(=O)COc1cc2cc(Nc3nc(N4CCC(CN5CCC6(CC5)CN(c5cccc7c5C(=O)N(C5CCC(=O)NC5=O)C7=O)C6(C)C)CC4)ncc3Cl)ccc2n(C(C)C)c1=O (stereo not shown) [Compound 337, 2-{[6-({5-chloro-2-[4-({2-[2-(2,6-dioxopiperidin-3-yl)-1,3-dioxo-2,3-dihydro-1H-isoindol-4-yl]-1,1-dimethyl-2,7-diazaspiro[3.5]nonan-7-yl}methyl)piperidin-1-yl]pyrimidin-4-yl}amino)-2-oxo-1-(propan-2-yl)-1,2-dihydroquinolin-3-yl]oxy}-N-methylacetamide]			50 to 70%	< 10 nM
CNC(=O)COc1cc2cc(Nc3nc(N4CCC(O[C@H]5C[C@H](N6CC[C@H](c7ccc8c(c7F)CN([C@H]7CCC(=O)NC7=O)C8=O)C[C@@H]6C)C5)CC4)ncc3Cl)ccc2n(C(C)C)c1=O [Compound 293, 2-({6-[(5-chloro-2-{4-[(1r,3r)-3-[(2S,4S)-4-{2-[(3S)-2,6-dioxopiperidin-3-yl]-4-fluoro-1-oxo-2,3-dihydro-1H-isoindol-5-yl}-2-methylpiperidin-1-yl]cyclobutoxy]piperidin-1-yl}pyrimidin-4-yl)amino]-2-oxo-1-(propan-2-yl)-1,2-dihydroquinolin-3-yl}oxy)-N-methylacetamide]			50 to 70%	< 10 nM

Continued, values first:

DC50 [1]	Dmax [1]	Dmax (T47D)	DC50	Structure (SMILES)
≥ 100 nM	≥ 70%			CNC(=O)COc1cc2cc(Nc3nc(N4CCN(CC5CCN(c6ccc7c(c6OC)CN(C6CCC(=O)NC6=O)C7=O)CC5)CC4)ncc3Cl)ccc2n(C(C)C)c1=O (stereo not shown) [Compound 20, 2-{[6-({5-chloro-2-[4-({1-[2-(2,6-dioxopiperidin-3-yl)-4-methoxy-1-oxo-2,3-dihydro-1H-isoindol-5-yl]piperidin-4-yl}methyl)piperazin-1-yl]pyrimidin-4-yl}amino)-2-oxo-1-(propan-2-yl)-1,2-dihydroquinolin-3-yl]oxy}-N-methylacetamide]
< 10 nM	50 to 70%			CNC(=O)COc1cc2cc(Nc3nc(N4CCC(CN5CC6(CCN(c7ccc8c(c7)C(=O)N(C7CCC(=O)NC7=O)C8=O)CC6(F)F)C5)CC4)ncc3Cl)ccc2n(C(C)C)c1=O (stereo not shown) [Compound 135, 2-{[6-({5-chloro-2-[4-({7-[2-(2,6-dioxopiperidin-3-yl)-1,3-dioxo-2,3-dihydro-1H-isoindol-5-yl]-5,5-difluoro-2,7-diazaspiro[3.5]nonan-2-yl}methyl)piperidin-1-yl]pyrimidin-4-yl}amino)-2-oxo-1-(propan-2-yl)-1,2-dihydroquinolin-3-yl]oxy}-N-methylacetamide]
< 10 nM	50 to 70%			CNC(=O)COc1cc2cc(Nc3nc(N4CCC(C(C)(C)N5CCC6(CC5)CN(c5cccc7c5CN(C5CCC(=O)NC5=O)C7=O)C6)CC4)ncc3Cl)ccc2n(C(C)C)c1=O (stereo not shown) [Compound 59, 2-{[6-({5-chloro-2-[4-(2-{2-[2-(2,6-dioxopiperidin-3-yl)-1-oxo-2,3-dihydro-1H-isoindol-4-yl]-2,7-diazaspiro[3.5]nonan-7-yl}propan-2-yl)piperidin-1-yl]pyrimidin-4-yl}amino)-2-oxo-1-(propan-2-yl)-1,2-dihydroquinolin-3-yl]oxy}-N-methylacetamide]
< 10 nM	50 to 70%			CNC(=O)COc1cc2cc(Nc3nc(N4CCC(CN5CCC6(CCN(c7ccc8c(c7)CN(C7CCC(=O)NC7=O)C8=O)C6=O)C5)CC4)ncc3Cl)ccc2n(C(C)C)c1=O (stereo not shown) [Compound 48, 2-{[6-({5-chloro-2-[4-({7-[2-(2,6-dioxopiperidin-3-yl)-1-oxo-2,3-dihydro-1H-isoindol-5-yl]-6-oxo-2,7-diazaspiro[4.4]nonan-2-yl}methyl)piperidin-1-yl]pyrimidin-4-yl}amino)-2-oxo-1-(propan-2-yl)-1,2-dihydroquinolin-3-yl]oxy}-N-methylacetamide]
< 10 nM	< 50%			CNC(=O)COc1cc2cc(Nc3nc(N4CCC(CN5CC6(CCN(c7ccc8c(c7)CN(C7CCC(=O)NC7=O)C8=O)C6)CC5=O)CC4)ncc3Cl)ccc2n(C(C)C)c1=O (stereo not shown) [Compound 54, 2-{[6-({5-chloro-2-[4-({7-[2-(2,6-dioxopiperidin-3-yl)-1-oxo-2,3-dihydro-1H-isoindol-5-yl]-3-oxo-2,7-diazaspiro[4.4]nonan-2-yl}methyl)piperidin-1-yl]pyrimidin-4-yl}amino)-2-oxo-1-(propan-2-yl)-1,2-dihydroquinolin-3-yl]oxy}-N-methylacetamide]
